Data published in patent US12252524B2, “GIP/GLP1 co-agonist compounds” (Eli Lilly and Company, priority 2018, dated 2025).
Numbered stars: 1 amine (or outer) side, 2 acyl side, 3 side chain; on linkers, the order of the positions; unused ones are H or OH. Square brackets hold non-standard residues; d marks the D form. Side chains are listed from the residue outwards. Peptide text beside a SMILES is read from it. * marks the point of attachment. C20 diacid = O=C(O)CCCCCCCCCCCCCCCCCCC(=O)*; C18 diacid = O=C(O)CCCCCCCCCCCCCCCCC(=O)*; αMePhe(2-F) = C[C@](N)(Cc1ccccc1F)C(=O)O; γGlu = O=C(O)[C@H](CCC(=O)[*:2])N[*:1]; αMeF = C[C@](N)(Cc1ccccc1)C(=O)O; αMeL = CC(C)C[C@](C)(N)C(=O)O; Orn = NCCC[C@H](N)C(=O)O; AEEA = NCCOCCOCC(=O)O; Aib = CC(C)(N)C(=O)O

Columns and labels:
[1] = molecular target: human GLP-1 receptor (GLP-1R) (Homo sapiens, UniProt P43220); test: cAMP pharmacological functional assay in presence of casein, hGLP-1R; type: cell-based; settings: HEK293 cells expressing hGLP-1R, 0.1% Casein, geometric mean; read-out: hGLP1R cAMP Rel EC50 nM (SEM, n)
human GLP-1 receptor (GLP-1R), sequence (P43220 24-463): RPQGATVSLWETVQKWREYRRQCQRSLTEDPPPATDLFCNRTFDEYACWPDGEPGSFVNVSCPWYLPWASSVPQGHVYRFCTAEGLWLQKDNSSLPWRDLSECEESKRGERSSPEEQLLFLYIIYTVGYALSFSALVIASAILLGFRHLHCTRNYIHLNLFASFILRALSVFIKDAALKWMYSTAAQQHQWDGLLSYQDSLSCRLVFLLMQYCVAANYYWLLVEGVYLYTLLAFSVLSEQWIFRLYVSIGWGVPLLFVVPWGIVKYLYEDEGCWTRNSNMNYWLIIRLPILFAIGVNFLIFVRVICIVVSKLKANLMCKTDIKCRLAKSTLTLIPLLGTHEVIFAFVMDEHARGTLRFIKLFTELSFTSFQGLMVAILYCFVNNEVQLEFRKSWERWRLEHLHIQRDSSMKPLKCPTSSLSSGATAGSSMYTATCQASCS

[2] = molecular target: T1, gastric inhibitory peptide receptor (GIPR) (Homo sapiens, UniProt P48546); test: cAMP pharmacological functional assay in presence of casein, hGIPR; type: cell-based; settings: HEK293 cells expressing hGIPR, 0.1% Casein, geometric mean; read-out: hGIPR cAMP Rel EC50 nM (SEM, n)
T1 sequence (P48546 22-466): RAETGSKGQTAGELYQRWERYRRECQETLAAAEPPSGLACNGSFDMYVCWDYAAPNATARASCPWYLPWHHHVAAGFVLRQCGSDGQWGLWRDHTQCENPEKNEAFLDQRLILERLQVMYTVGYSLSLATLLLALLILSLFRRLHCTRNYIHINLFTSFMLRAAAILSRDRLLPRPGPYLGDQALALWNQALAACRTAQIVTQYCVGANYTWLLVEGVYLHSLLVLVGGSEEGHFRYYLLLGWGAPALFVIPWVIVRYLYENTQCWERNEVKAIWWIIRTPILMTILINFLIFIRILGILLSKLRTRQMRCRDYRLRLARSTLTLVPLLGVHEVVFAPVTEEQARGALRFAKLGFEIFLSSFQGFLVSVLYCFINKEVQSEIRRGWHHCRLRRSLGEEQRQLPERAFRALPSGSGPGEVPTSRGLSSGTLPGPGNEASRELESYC

Structure (SMILES) | EC50 [1] | EC50 [2]
CC[C@H](C)[C@H](NC(=O)[C@H](CC(C)C)NC(=O)[C@H](Cc1ccc(O)cc1)NC(=O)[C@@H](CCC(=O)O)NC(=O)[C@@H](NC(=O)[C@H](Cc1ccccc1)NC(=O)[C@H](CCC(=O)O)NC(=O)C(C)(C)NC(=O)[C@H](CCC(N)=O)NC(=O)[C@H](C)NC(=O)[C@H](CCC(N)=O)NC(=O)[C@H](CCCN)NC(=O)[C@H](CC(=O)O)NC(=O)[C@H](CC(C)C)NC(=O)[C@](C)(CC(C)C)NC(=O)[C@@H](NC(=O)[C@H](CO)NC(=O)[C@H](Cc1ccc(O)cc1)NC(=O)[C@H](CC(=O)O)NC(=O)[C@H](CO)NC(=O)[C@@H](NC(=O)[C@](C)(Cc1ccccc1F)NC(=O)[C@@H](NC(=O)CNC(=O)[C@H](CCC(=O)O)NC(=O)C(C)(C)NC(=O)[C@@H](N)Cc1ccc(O)cc1)[C@@H](C)O)[C@@H](C)O)[C@@H](C)CC)[C@@H](C)CC)C(=O)N[C@@H](CCC(=O)O)C(=O)NCC(=O)NCC(=O)N1CCC[C@H]1C(=O)N[C@@H](CO)C(=O)N[C@@H](CO)C(=O)NCC(=O)N[C@@H](C)C(=O)N1CCC[C@H]1C(=O)N1CCC[C@H]1C(=O)N1CCC[C@H]1C(=O)N[C@@H](CO)C(N)=O [Example 281] (H-Y[Aib]EGT[αMePhe(2-F)]TSDYSI[αMeL]LD[Orn]QAQ[Aib]EFI[dE]YLIEGGPSSGAPPPS-NH2) | 0.16 nM | 0.166 nM
CC[C@H](C)[C@H](NC(=O)[C@H](CC(C)C)NC(=O)[C@H](Cc1ccc(O)cc1)NC(=O)[C@@H](CCC(=O)O)NC(=O)[C@@H](NC(=O)[C@H](Cc1ccccc1)NC(=O)[C@H](CCC(=O)O)NC(=O)C(C)(C)NC(=O)[C@H](CCC(N)=O)NC(=O)[C@H](C)NC(=O)[C@H](CCCCN)NC(=O)[C@H](CCC(=O)O)NC(=O)[C@H](CC(=O)O)NC(=O)[C@H](CC(C)C)NC(=O)[C@](C)(CC(C)C)NC(=O)[C@@H](NC(=O)[C@H](CO)NC(=O)[C@H](Cc1ccc(O)cc1)NC(=O)[C@H](CC(=O)O)NC(=O)[C@H](CO)NC(=O)[C@@H](NC(=O)[C@](C)(Cc1ccccc1F)NC(=O)[C@@H](NC(=O)CNC(=O)[C@H](CCC(=O)O)NC(=O)C(C)(C)NC(=O)[C@@H](N)Cc1ccc(O)cc1)[C@@H](C)O)[C@@H](C)O)[C@@H](C)CC)[C@@H](C)CC)C(=O)N[C@@H](CCC(=O)O)C(=O)NCC(=O)NCC(=O)N1CCC[C@H]1C(=O)N[C@@H](CO)C(=O)N[C@@H](CO)C(=O)NCC(=O)N[C@@H](C)C(=O)N1CCC[C@H]1C(=O)N1CCC[C@H]1C(=O)N1CCC[C@H]1C(=O)N[C@@H](CO)C(N)=O [Example 276] (H-Y[Aib]EGT[αMePhe(2-F)]TSDYSI[αMeL]LDEKAQ[Aib]EFI[dE]YLIEGGPSSGAPPPS-NH2) | 0.108 nM | 0.0757 nM
CC[C@H](C)[C@H](NC(=O)[C@H](CC(C)C)NC(=O)[C@H](Cc1ccc(O)cc1)NC(=O)[C@@H](CCC(=O)O)NC(=O)[C@@H](NC(=O)[C@H](Cc1ccccc1)NC(=O)[C@H](Cc1c[nH]cn1)NC(=O)C(C)(C)NC(=O)[C@H](CCC(N)=O)NC(=O)[C@H](C)NC(=O)[C@H](CCCCNC(=O)COCCOCCNC(=O)COCCOCCNC(=O)CC[C@H](NC(=O)CCCCCCCCCCCCCCCCC(=O)O)C(=O)O)NC(=O)[C@H](CCC(=O)O)NC(=O)[C@H](CC(=O)O)NC(=O)[C@H](CC(C)C)NC(=O)[C@](C)(CC(C)C)NC(=O)[C@@H](NC(=O)[C@H](CO)NC(=O)[C@H](Cc1c[nH]cn1)NC(=O)[C@H](CC(=O)O)NC(=O)[C@H](CO)NC(=O)[C@@H](NC(=O)[C@](C)(Cc1ccccc1F)NC(=O)[C@@H](NC(=O)CNC(=O)[C@H](CCC(=O)O)NC(=O)C(C)(C)NC(=O)[C@@H](N)Cc1ccc(O)cc1)[C@@H](C)O)[C@@H](C)O)[C@@H](C)CC)[C@@H](C)CC)C(=O)N[C@@H](CCC(=O)O)C(=O)NCC(=O)NCC(=O)N1CCC[C@H]1C(=O)N[C@@H](CO)C(=O)N[C@@H](CO)C(=O)NCC(=O)N[C@@H](C)C(=O)N1CCC[C@H]1C(=O)N1CCC[C@H]1C(=O)N1CCC[C@H]1C(=O)N[C@@H](CO)C(N)=O [Example 177] (H-Y[Aib]EGT[αMePhe(2-F)]TSDHSI[αMeL]LDEK([AEEA-AEEA-γGlu-C18 diacid])AQ[Aib]HFI[dE]YLIEGGPSSGAPPPS-NH2) | 6.79 nM | 1.4 nM
CC[C@H](C)[C@H](NC(=O)[C@H](CC(C)C)NC(=O)[C@H](Cc1ccc(O)cc1)NC(=O)[C@H](CCC(=O)O)NC(=O)[C@@H](NC(=O)[C@H](Cc1ccccc1)NC(=O)[C@H](C)NC(=O)C(C)(C)NC(=O)[C@H](CCC(N)=O)NC(=O)[C@H](C)NC(=O)[C@H](CCCCNC(=O)COCCOCCNC(=O)COCCOCCNC(=O)CC[C@H](NC(=O)CCCCCCCCCCCCCCCCCCC(=O)O)C(=O)O)NC(=O)[C@H](CCCCN)NC(=O)[C@H](CC(=O)O)NC(=O)[C@H](CC(C)C)NC(=O)[C@H](CC(C)C)NC(=O)[C@@H](NC(=O)[C@H](CO)NC(=O)[C@](C)(Cc1ccccc1)NC(=O)[C@H](CC(=O)O)NC(=O)[C@H](CO)NC(=O)[C@@H](NC(=O)[C@](C)(Cc1ccccc1)NC(=O)[C@@H](NC(=O)CNC(=O)[C@H](CCC(=O)O)NC(=O)C(C)(C)NC(=O)[C@@H](N)Cc1ccc(O)cc1)[C@@H](C)O)[C@@H](C)O)[C@@H](C)CC)[C@@H](C)CC)C(=O)N[C@@H](CCC(=O)O)C(=O)NCC(=O)NCC(=O)N1CCC[C@H]1C(=O)N[C@@H](CO)C(=O)N[C@@H](CO)C(=O)NCC(=O)N[C@@H](C)C(=O)N1CCC[C@H]1C(=O)N1CCC[C@H]1C(=O)N1CCC[C@H]1C(=O)N[C@@H](CO)C(N)=O [Example 131] (H-Y[Aib]EGT[αMeF]TSD[αMeF]SILLDKK([AEEA-AEEA-γGlu-C20 diacid])AQ[Aib]AFIEYLIEGGPSSGAPPPS-NH2) | 0.156 nM | 0.183 nM
CC[C@H](C)[C@H](NC(=O)[C@H](CCCCN)NC(=O)[C@H](CC(=O)O)NC(=O)[C@H](CC(C)C)NC(=O)[C@H](CC(C)C)NC(=O)[C@@H](NC(=O)[C@H](CO)NC(=O)[C@H](CCCCNC(=O)COCCOCCNC(=O)COCCOCCNC(=O)CC[C@H](NC(=O)CCCCCCCCCCCCCCCCCCC(=O)O)C(=O)O)NC(=O)[C@H](CC(=O)O)NC(=O)[C@H](CO)NC(=O)[C@@H](NC(=O)[C@H](Cc1ccccc1)NC(=O)[C@@H](NC(=O)CNC(=O)[C@H](CCC(=O)O)NC(=O)C(C)(C)NC(=O)[C@@H](N)Cc1ccc(O)cc1)[C@@H](C)O)[C@@H](C)O)[C@@H](C)CC)C(=O)N[C@@H](C)C(=O)N[C@@H](CCC(N)=O)C(=O)NC(C)(C)C(=O)N[C@@H](C)C(=O)N[C@@H](Cc1ccccc1)C(=O)N[C@H](C(=O)N[C@@H](CCC(=O)O)C(=O)N[C@@H](Cc1ccc(O)cc1)C(=O)N[C@@H](CC(C)C)C(=O)N[C@H](C(=O)N[C@@H](CCC(=O)O)C(=O)NCC(=O)NCC(N)=O)[C@@H](C)CC)[C@@H](C)CC [Example 70] (H-Y[Aib]EGTFTSDK([AEEA-AEEA-γGlu-C20 diacid])SILLDKIAQ[Aib]AFIEYLIEGG-NH2; N-terminus assumed) | 0.283 nM | 0.48 nM
CC[C@H](C)[C@H](NC(=O)[C@H](CC(C)C)NC(=O)[C@H](Cc1ccc(O)cc1)NC(=O)[C@H](CCC(=O)O)NC(=O)[C@@H](NC(=O)[C@H](Cc1ccccc1)NC(=O)[C@H](C)NC(=O)[C@@H](NC(=O)[C@H](CCC(N)=O)NC(=O)[C@H](C)NC(=O)[C@H](CCCCNC(=O)COCCOCCNC(=O)COCCOCCNC(=O)CC[C@H](NC(=O)CCCCCCCCCCCCCCCCCCC(=O)O)C(=O)O)NC(=O)[C@H](CCCCN)NC(=O)[C@H](CC(=O)O)NC(=O)[C@H](CC(C)C)NC(=O)[C@H](CC(C)C)NC(=O)[C@@H](NC(=O)[C@H](CO)NC(=O)[C@H](Cc1ccc(O)cc1)NC(=O)[C@H](CC(=O)O)NC(=O)[C@H](CO)NC(=O)[C@@H](NC(=O)[C@H](Cc1ccccc1)NC(=O)[C@@H](NC(=O)CNC(=O)[C@H](CCC(=O)O)NC(=O)C(C)(C)NC(=O)[C@@H](N)Cc1ccc(O)cc1)[C@@H](C)O)[C@@H](C)O)[C@@H](C)CC)[C@@H](C)O)[C@@H](C)CC)C(=O)N[C@@H](CCC(=O)O)C(=O)NCC(=O)NCC(=O)N1CCC[C@H]1C(=O)N[C@@H](CO)C(=O)N[C@@H](CO)C(=O)NCC(=O)N[C@@H](C)C(=O)N1CCC[C@H]1C(=O)N1CCC[C@H]1C(=O)N1CCC[C@H]1C(=O)N[C@@H](CO)C(N)=O [Example 262] (H-Y[Aib]EGTFTSDYSILLDKK([AEEA-AEEA-γGlu-C20 diacid])AQTAFIEYLIEGGPSSGAPPPS-NH2) | 0.0943 nM | 0.13 nM
CC[C@H](C)[C@H](NC(=O)[C@H](CC(C)C)NC(=O)[C@H](Cc1ccc(O)cc1)NC(=O)[C@@H]1CCCN1C(=O)[C@@H](NC(=O)[C@H](Cc1ccccc1)NC(=O)[C@H](CCC(=O)O)NC(=O)C(C)(C)NC(=O)[C@H](CCC(N)=O)NC(=O)[C@H](C)NC(=O)[C@H](CCCCNC(=O)COCCOCCNC(=O)COCCOCCNC(=O)CC[C@H](NC(=O)CCCCCCCCCCCCCCCCCCC(=O)O)C(=O)O)NC(=O)[C@H](CCC(=O)O)NC(=O)[C@H](CC(=O)O)NC(=O)[C@H](CC(C)C)NC(=O)[C@](C)(CC(C)C)NC(=O)[C@@H](NC(=O)[C@H](CO)NC(=O)[C@H](Cc1ccc(O)cc1)NC(=O)[C@H](CC(=O)O)NC(=O)[C@H](CO)NC(=O)[C@@H](NC(=O)[C@](C)(Cc1ccccc1F)NC(=O)[C@@H](NC(=O)CNC(=O)[C@H](CCC(=O)O)NC(=O)C(C)(C)NC(=O)[C@@H](N)Cc1ccc(O)cc1)[C@@H](C)O)[C@@H](C)O)[C@@H](C)CC)[C@@H](C)CC)C(=O)N[C@@H](CCC(=O)O)C(=O)NCC(=O)NCC(=O)N1CCC[C@H]1C(=O)N[C@@H](CO)C(=O)N[C@@H](CO)C(=O)NCC(=O)N[C@@H](C)C(=O)N1CCC[C@H]1C(=O)N1CCC[C@H]1C(=O)N1CCC[C@H]1C(=O)N[C@@H](CO)C(N)=O [Example 151] (H-Y[Aib]EGT[αMePhe(2-F)]TSDYSI[αMeL]LDEK([AEEA-AEEA-γGlu-C20 diacid])AQ[Aib]EFIPYLIEGGPSSGAPPPS-NH2; N-terminus assumed) | 1.6 nM | 0.41 nM
